# Experimental data from PubChem BioAssay AID493139 (Sanford-Burnham Center for Chemical Genomics, 2011).
# Values joined by “and” are separate entries in the source; they are usually repeats but may differ in a detail not shown here. Equal values may be shown once. Active and inactive are the calls of the source. The rule behind the calls is not given here.
# Molecular target: Alkaline phosphatase, germ cell type (Homo sapiens) (UniProt P10696)
# Assay: effect of analogs on PLAP-like activity, SAR follow-up, selectivity assay for mouse IAP activator project, biochemical, human placental-like ALPPL2 isozyme (AID 493139)
# Settings: purified human placental-like alkaline phosphatase, enzymatic activity
# Chain of Alkaline phosphatase, germ cell type (Homo sapiens) (P10696 whole entry, looked up): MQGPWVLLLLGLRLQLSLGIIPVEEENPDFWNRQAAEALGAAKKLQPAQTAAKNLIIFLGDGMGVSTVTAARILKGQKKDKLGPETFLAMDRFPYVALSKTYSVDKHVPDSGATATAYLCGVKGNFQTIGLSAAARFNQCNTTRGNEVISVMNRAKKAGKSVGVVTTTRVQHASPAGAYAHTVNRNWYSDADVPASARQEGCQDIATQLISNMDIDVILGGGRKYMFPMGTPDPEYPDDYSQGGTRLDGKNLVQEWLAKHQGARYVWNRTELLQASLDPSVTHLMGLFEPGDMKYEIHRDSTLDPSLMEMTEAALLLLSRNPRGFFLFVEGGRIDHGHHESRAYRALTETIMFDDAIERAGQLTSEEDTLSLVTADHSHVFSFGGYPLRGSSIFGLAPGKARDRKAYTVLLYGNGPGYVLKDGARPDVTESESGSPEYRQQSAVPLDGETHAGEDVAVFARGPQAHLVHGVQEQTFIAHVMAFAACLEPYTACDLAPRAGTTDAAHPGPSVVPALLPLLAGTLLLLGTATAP
row,IC50 (inhibition of PLAP activity),Structure (SMILES)
1,> 100 µM (inactive),COc1cc([N+](=O)[O-])ccc1NC(=S)NCCC(c1ccccc1)c1ccccc1
2,> 100 µM (inactive),N#Cc1cccc(NC(=O)CCNS(=O)(=O)c2ccc3[nH]c(=O)oc3c2)c1
3,> 100 µM (inactive),CN(C(=O)CN1C(=O)/C(=C\c2ccco2)SC1=S)C1CCS(=O)(=O)C1 (configuration not stated)
4,> 100 µM (inactive),O=C(O)CC(C(=O)O)N1C(=O)/C(=C/c2ccc(-c3nc4ccccc4s3)o2)SC1=S (configuration not stated)
5,> 100 µM (inactive),O=C(CN1C(=O)/C(=C\c2ccco2)SC1=S)Nc1ccccc1C(=O)O
6,> 100 µM (inactive),CN1CCC(=NNC(=O)c2cc(O)c(O)c(O)c2)CC1
7,> 100 µM (inactive),CSc1cccc(NC(=O)CCNS(=O)(=O)c2ccc3[nH]c(=O)oc3c2)c1
8,> 100 µM (inactive),COc1ccccc1NC(=O)CSc1sc2c(O)cc(=O)[nH]c2c1C#N
9,> 100 µM (inactive),O=C(c1ccco1)N1CCN(S(=O)(=O)c2ccc3[nH]c(=O)oc3c2)CC1
10,> 100 µM (inactive),NS(=O)(=O)c1ccc(-c2ccc(/C=C3\SC(=S)N(C4CCS(=O)(=O)C4)C3=O)o2)cc1 (configuration not stated)
11,> 100 µM (inactive),N#Cc1c(SCC(=O)Nc2nc3ccc(Br)cc3s2)sc2c(O)cc(=O)[nH]c12
12,> 100 µM (inactive),CC(C)c1ccc(NC(=O)CCNS(=O)(=O)c2ccc3[nH]c(=O)oc3c2)cc1
13,> 100 µM (inactive),COc1ccc(OC)c(NC(=O)CCNS(=O)(=O)c2ccc3[nH]c(=O)oc3c2)c1
14,> 100 µM (inactive),COc1ccc(Cl)cc1NC(=O)CSc1sc2c(O)cc(=O)[nH]c2c1C#N
15,> 100 µM (inactive),O=C(CCCN1C(=O)/C(=C\c2ccco2)SC1=S)Nc1ccc(O)cc1C(=O)O
16,> 100 µM (inactive),Cc1ccc(NC(=O)CSc2sc3c(O)cc(=O)[nH]c3c2C#N)c(F)c1

row,IC50 (inhibition of PLAP activity),Structure (SMILES)
1,> 100 µM (inactive),CC(C(=O)N(C)C1CCS(=O)(=O)C1)N1C(=O)/C(=C/c2ccco2)SC1=S (configuration not stated)
2,> 100 µM (inactive),O=C(CCN1C(=O)/C(=C/c2ccco2)SC1=S)Nc1ccc(C(=O)O)c(O)c1
3,> 100 µM (inactive),Cc1cc(NC(=O)CSc2sc3c(O)cc(=O)[nH]c3c2C#N)ccc1Br
4,22 µM,COc1cc(C(=O)NNC(=S)NC(=O)c2ccc(Cl)cc2)cc(OC)c1OC
5,> 100 µM (inactive),CC(C(=O)Nc1ccccc1C(=O)O)N1C(=O)/C(=C\c2ccco2)SC1=S (configuration not stated)
6,> 100 µM (inactive),O=C(NCCc1ccc(Cl)cc1)C1CCCN(S(=O)(=O)c2ccc3[nH]c(=O)oc3c2)C1 (configuration not stated)
7,28.5 µM,O=C(CN1C(=O)/C(=C/c2ccco2)SC1=S)NC1C=CS(=O)(=O)C1 (configuration not stated)
8,21.9 µM,COc1cc(C(=O)NNC(=O)c2n[nH]c3ccccc23)cc(OC)c1OC
9,> 100 µM (inactive),COc1cccc(/C=N/NC(=O)c2cc(O)c(O)c(O)c2)c1
10,> 100 µM (inactive) and 61.4 µM,CC(C)N1CCC(=NNC(=O)c2cc(O)c(O)c(O)c2)CC1
11,17.9 µM,O=C1/C(=C/c2ccco2)SC(=S)N1C1CCS(=O)(=O)C1 (configuration not stated)
12,> 100 µM (inactive),O=C(CN1C(=O)/C(=C/c2ccco2)SC1=S)Nc1ccc(C(=O)O)cc1
13,> 100 µM (inactive),Cc1ccc(NC(=O)CCNS(=O)(=O)c2ccc3[nH]c(=O)oc3c2)c(C)c1
14,> 100 µM (inactive),O=C(N/N=C/c1ccsc1)c1cc(O)c(O)c(O)c1
15,> 100 µM (inactive),Cc1ccc(NC(=O)CCNS(=O)(=O)c2ccc3[nH]c(=O)oc3c2)cc1
16,> 100 µM (inactive),COc1cccc(NC(=O)CN(C)S(=O)(=O)c2ccc3[nH]c(=O)oc3c2)c1
